# From patent publication US6620593B1, “Method for safety evaluation of chemical compound using recombinant yeast expressing human cytochrome P450” (Sumitomo Chemical Company, Limited, priority 1993, dated 2003)
# Like-named read-outs stand apart in the source and are kept apart here.
# Assays:
# [1] = target: T1, human P450 1A2 (Homo sapiens, UniProt P05177); assay: Ames test using yeast S-9 Mix fraction and microsomal fraction, human P450 1A2 as metabolic activation source; format: cell-based; parameters: made in house; host or cells: Saccharomyces cerevisiae AH22 (whole transformed cells, S-9 Mix or microsomal fractions)
# T1 sequence (P05177 1-516): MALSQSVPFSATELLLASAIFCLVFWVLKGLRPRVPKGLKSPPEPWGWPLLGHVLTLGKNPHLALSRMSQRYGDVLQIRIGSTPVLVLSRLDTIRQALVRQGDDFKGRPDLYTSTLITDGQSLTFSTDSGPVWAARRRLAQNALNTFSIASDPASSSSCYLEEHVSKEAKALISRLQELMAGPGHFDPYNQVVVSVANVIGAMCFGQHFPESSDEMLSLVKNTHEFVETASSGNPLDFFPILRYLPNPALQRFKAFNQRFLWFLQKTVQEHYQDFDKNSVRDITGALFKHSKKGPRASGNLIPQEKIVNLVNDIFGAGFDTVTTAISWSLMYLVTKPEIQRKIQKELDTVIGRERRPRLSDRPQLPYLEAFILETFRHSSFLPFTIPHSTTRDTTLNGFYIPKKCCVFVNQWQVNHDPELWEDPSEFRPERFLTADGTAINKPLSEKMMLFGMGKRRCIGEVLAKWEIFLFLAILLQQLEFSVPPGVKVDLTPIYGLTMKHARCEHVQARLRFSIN
# Excerpt: (§1) The toxic effects, in particular mutagenicity, of the resulting metabolites can be determined by a conventional biological analytic method such as the Ames Test. For example, the metabolites present in the reaction solution are allowed to react with mutant bacteria such as histidine requiring Salmonella strain (Salmonella typhimurium (his−)), or tryptophan requiring Escherichia coil (Escherichia coil (trp−)), and then determine whether the metabolites cause the back mutation of the bacteria whether the colonies of revertant which is not requiring the amino acid (His+ or Trp+) are formed, and, if formed, how many colonies. In place of the bacteria, mammalian cells such as MCL-5 cells, which are sensitive to cell toxicity of a chemical compound (U.S. Pat. No. 4,532,204), can be used.
# (§2) The Ames test method was in accordance with the customary method described, for example, in Mutat. Res., (1975) 31, 347. 2-Aminoanthrathene which is an arylamine type compound was used as a specimen compound. (1) Rat S-9 Mix supernatant fraction (obtained by homogenizing liver and then subjected to centrifugation (9000×g, 10 min), manufactured by Kikkoman) containing each kind of rat P450 molecular species at the concentration of 1200 pmol per 1 sample and (2) Yeast S-9 Mix fraction obtained from each kind of yeast cells expressing human P450 or a microsomal fraction prepared from the yeast S-9 Mix fraction were used as a metabolic activation source in the Ames test.
# [2] = target: T2, human cytochrome P450 2C8 (Homo sapiens, UniProt P10632); assay: Ames test using yeast S-9 Mix fraction and microsomal fraction, human P450 2C8 as metabolic activation source; format: cell-based
# T2 construct: The entire protein coding region of the P450 2C8 gene was amplified by the PCR method; made in house; host or cells: Saccharomyces cerevisiae AH22 (whole transformed cells, S-9 Mix or microsomal fractions)
# T2 sequence (P10632 1-490): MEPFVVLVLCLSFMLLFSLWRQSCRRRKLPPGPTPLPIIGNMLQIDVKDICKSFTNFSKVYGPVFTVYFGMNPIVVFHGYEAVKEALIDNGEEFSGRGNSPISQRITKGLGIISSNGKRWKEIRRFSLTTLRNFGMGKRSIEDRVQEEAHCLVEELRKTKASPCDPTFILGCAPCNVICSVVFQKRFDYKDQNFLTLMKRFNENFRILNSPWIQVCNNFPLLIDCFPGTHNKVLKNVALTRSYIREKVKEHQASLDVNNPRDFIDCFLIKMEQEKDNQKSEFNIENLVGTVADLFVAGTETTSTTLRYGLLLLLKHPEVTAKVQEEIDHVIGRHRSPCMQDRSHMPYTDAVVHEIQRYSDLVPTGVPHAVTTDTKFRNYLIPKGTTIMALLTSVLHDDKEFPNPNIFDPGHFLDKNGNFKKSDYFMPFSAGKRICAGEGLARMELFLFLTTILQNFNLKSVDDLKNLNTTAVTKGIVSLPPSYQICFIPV
# Excerpt: as §1
# (§3) The Ames test method was in accordance with the customary method described, for example, in Mutat. Res., (1975) 31, 347. 2-Aminoanthrathene which is an arylamine type compound was used as a specimen compound. […]
# [3] = tested on: human cytochrome P450 2A6; assay: Ames test using yeast S-9 Mix fraction and microsomal fraction, human P450 2A6 as metabolic activation source; format: cell-based
# Excerpt: as §1, §3
# [4] = tested on: human cytochrome P450 3A4; assay: Ames test using yeast S-9 Mix fraction and microsomal fraction, human P450 3A4 as metabolic activation source; format: cell-based
# Excerpt: as §1, §3
# [5] = target: T3, human P450 2E1 (Homo sapiens, UniProt P05181); assay: Ames test using yeast S-9 Mix fraction and microsomal fraction, human P450 2E1 as metabolic activation source; format: cell-based
# Excerpt: as §1, §2
# [6] = target: T3, human P450 2E1; assay: Metabolism (hydroxylation) of substrates using transformed yeast cells or microsomal fractions expressing human P450 2E1; conditions: microsomes
# Procedure: (§4) Then 2 ml of dichloromethane was added.
# [7] = target: T4, human P450 2C18 (Homo sapiens, UniProt P33260); assay: Metabolism (hydroxylation) of substrates using transformed yeast cells or microsomal fractions expressing human P450 2C18; conditions: microsomes
# T4 sequence (P33260 26-490): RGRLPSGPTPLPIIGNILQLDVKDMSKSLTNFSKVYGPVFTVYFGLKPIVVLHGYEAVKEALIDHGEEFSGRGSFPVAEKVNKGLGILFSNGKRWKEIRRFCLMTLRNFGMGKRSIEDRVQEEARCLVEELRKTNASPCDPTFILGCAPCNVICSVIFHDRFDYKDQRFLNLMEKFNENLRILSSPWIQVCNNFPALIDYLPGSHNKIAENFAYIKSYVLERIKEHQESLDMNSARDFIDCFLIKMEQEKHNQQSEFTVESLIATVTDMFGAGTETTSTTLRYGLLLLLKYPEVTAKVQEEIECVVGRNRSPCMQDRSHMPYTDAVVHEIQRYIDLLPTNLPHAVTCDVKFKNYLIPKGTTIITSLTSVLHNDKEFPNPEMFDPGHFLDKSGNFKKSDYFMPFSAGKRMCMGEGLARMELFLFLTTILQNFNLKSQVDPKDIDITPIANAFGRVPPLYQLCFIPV
# Procedure: as §4
# [8] = target: human P450 2C9 (Homo sapiens, UniProt P11712); assay: Metabolism (hydroxylation) of substrates using transformed yeast cells or microsomal fractions expressing human P450 2C9; conditions: microsomes
# Procedure: as §4
# [9] = target: T1, human P450 1A2; assay: Metabolism (hydroxylation) of substrates using transformed yeast cells or their microsomal fractions expressing human P450 1A2 and yeast NADPH-P450 reductase; conditions: microsomes
# Procedure: as §4
# [10] = tested on: human P450 3A4; assay: Metabolism (hydroxylation) of substrates using transformed yeast cells or microsomal fractions expressing human P450 3A4; conditions: microsomes
# Procedure: as §4
# [11] = tested on: human P450 2C8; assay: Metabolism (hydroxylation) of substrates using transformed yeast cells or microsomal fractions expressing human P450 2C8; conditions: microsomes
# Procedure: as §4
# [12] = tested on: human P450 2D6; assay: Metabolism (hydroxylation) of substrates using transformed yeast cells or microsomal fractions expressing human P450 2D6; conditions: microsomes
# Procedure: as §4
# [13] = tested on: human P450 2A6; assay: Metabolism (hydroxylation) of substrates using transformed yeast cells or microsomal fractions expressing human P450 2A6; conditions: microsomes
# Procedure: as §4
# [14] = target: T5, human P450 2B6 (Homo sapiens, UniProt P20813); assay: Metabolism (hydroxylation) of substrates using transformed yeast cells or microsomal fractions expressing human P450 2B6; conditions: microsomes
# T5 sequence (P20813 1-491): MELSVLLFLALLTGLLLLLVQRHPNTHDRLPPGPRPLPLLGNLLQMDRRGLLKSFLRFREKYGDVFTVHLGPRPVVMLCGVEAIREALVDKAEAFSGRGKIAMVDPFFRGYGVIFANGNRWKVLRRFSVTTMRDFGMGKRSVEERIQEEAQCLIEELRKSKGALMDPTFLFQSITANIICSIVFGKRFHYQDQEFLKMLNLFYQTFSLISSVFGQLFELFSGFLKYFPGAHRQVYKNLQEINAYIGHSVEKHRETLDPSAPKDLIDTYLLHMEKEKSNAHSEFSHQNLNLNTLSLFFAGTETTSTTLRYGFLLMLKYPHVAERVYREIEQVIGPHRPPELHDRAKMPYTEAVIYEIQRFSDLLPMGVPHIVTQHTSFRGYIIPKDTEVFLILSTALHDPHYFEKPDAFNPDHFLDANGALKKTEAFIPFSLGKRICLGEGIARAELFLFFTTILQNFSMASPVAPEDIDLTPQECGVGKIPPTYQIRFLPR
# Procedure: as §4
# [15] = target: T6, human P450 1A1 (Homo sapiens, UniProt P04798); conditions: microsomes
# T6 sequence (P04798 1-512): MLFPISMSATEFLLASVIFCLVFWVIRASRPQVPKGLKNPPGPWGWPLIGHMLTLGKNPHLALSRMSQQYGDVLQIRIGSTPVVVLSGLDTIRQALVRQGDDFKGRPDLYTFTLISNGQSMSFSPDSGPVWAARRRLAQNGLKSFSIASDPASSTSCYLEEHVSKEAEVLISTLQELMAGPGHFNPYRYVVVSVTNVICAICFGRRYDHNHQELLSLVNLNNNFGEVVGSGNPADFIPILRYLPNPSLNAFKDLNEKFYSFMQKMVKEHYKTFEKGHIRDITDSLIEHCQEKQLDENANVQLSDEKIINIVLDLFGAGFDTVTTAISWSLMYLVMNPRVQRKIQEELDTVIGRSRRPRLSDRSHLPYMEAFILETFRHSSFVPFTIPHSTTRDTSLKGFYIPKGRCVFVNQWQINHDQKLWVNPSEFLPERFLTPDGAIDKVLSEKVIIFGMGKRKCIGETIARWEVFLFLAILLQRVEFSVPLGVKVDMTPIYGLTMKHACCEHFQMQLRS
# Procedure: (§5) To the supernatant, 2 ml of dichloromethane was added. After sufficient stirring, the dichloromethane layer was recovered by centrifugation (5000×g, 10 min), and the solvent was evaporated under reduced pressure. The resultant residue was dissolved in 100 μl of acetonitrile, and the solution was analyzed by HPLC under the following conditions.
# (§6) Then 2 ml of dichloromethane was added. After sufficient stirring, the solution was centrifuged again (5000×g, 10 min). The dichloromethane layer was recovered from the separated layer and the solvent was evaporated under reduced pressure. The resultant residue was dissolved in 100 μl of acetonitrile, and the solution was analyzed by HPLC under the following conditions.
# Then 2 ml of dichloromethane was added to the supernatant and vigorously stirred and centrifuged (5000×g, 10 min). The dichloromethane layer was recovered from the separated layer, then evaporated under reduced pressure. The obtained residue was dissolved in 100 μl of acetonitrile, and the solution was analyzed by HPLC under the following conditions.
# Then 2 ml of dichloromethane was added to the solution, and the solution was stirred vigorously and centrifuged (15,000×g, 5 min). The dichloromethane layer was recovered, and the solvent was removed under reduced pressure. The obtained residue was dissolved in 100 μl of acetonitrile and the solution was subjected to analysis by HPLC under the same conditions as above.
# Then the solution was centrifuged (5000×g, 10 min) to give a supernatant. The obtained supernatant solution was subjected to the HPLC analysis under the following conditions.
# (§7) Then the solution was centrifuged (5000×g, 10 min) to give a supernatant. 62.5 μl of 15% trichloroacetic acid and 2 ml of chloroform were added to the obtained supernatant solution, and the resultant solution was stirred well. The chloroform layer was recovered from the separated layer. Then 4 ml of sodium hydroxide solution containing 0.1 M NaCl was added to the solution and centrifuged again (5000×g, 10 min).
# Then perchlorate was added to the solution, so that the final concentration of the perchlorate was 10% (v/v). The solution was sufficiently stirred and centrifuged (15,000×g, 15 min) to give the supernatant. The obtained supernatant was subjected to HPLC analysis according to the following conditions.
# Then the solution was diluted with equal volume of methanol, sufficiently stirred and centrifuged (15,000×g, 5 min) to give the supernatant. The obtained supernatant was subjected to HPLC analysis according to the following conditions.
# [16] = target: human P450 2C19 (Homo sapiens, UniProt P33261); assay: Metabolism (hydroxylation) of substrates using transformed yeast cells or microsomal fractions expressing human P450 2C19; conditions: microsomes
# Procedure: as §4
# [17] = tested on: other human P450 molecular species
# Procedure: as §5, §6, §7
# Then perchlorate was added to the solution, so that the final concentration of the perchlorate was 10% (v/v). The solution was sufficiently stirred and centrifuged (15,000×g, 15 min) to give the supernatant. […]
# [18] = Table 1 hydroxylation activity, metabolic activation in Ames test
# [19] = compound at 1 μg/plate (90 mm dia.), yeast S-9 Mix fraction and microsomal fraction
# Chain of human P450 2C9 (P11712 whole entry): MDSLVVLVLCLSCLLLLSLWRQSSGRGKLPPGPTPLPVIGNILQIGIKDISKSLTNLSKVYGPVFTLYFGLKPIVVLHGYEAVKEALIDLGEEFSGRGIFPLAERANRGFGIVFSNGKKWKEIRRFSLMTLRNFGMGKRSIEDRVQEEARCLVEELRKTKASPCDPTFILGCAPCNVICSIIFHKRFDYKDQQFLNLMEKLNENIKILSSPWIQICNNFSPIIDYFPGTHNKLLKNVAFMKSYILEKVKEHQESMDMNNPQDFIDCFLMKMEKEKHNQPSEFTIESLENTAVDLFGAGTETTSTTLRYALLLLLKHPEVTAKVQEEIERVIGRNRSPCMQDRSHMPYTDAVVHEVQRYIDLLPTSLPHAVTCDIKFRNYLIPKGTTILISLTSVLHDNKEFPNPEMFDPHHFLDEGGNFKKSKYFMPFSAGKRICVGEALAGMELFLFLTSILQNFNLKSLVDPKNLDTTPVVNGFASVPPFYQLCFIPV
# Chain of human P450 2C19 (P33261 whole entry): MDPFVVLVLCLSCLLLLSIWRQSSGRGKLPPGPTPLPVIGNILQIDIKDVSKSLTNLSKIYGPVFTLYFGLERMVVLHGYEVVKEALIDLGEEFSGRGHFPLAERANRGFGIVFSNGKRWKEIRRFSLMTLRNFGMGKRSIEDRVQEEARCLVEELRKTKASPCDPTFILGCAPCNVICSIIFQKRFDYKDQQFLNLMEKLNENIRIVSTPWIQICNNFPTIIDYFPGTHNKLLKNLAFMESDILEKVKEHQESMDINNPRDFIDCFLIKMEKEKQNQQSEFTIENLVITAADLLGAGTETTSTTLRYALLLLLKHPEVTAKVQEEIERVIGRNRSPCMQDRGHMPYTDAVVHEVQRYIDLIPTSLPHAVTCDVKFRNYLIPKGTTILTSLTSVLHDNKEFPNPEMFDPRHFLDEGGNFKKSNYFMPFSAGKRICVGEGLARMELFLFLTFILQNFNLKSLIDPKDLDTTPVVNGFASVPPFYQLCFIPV
# T3 sequence (P05181 whole entry): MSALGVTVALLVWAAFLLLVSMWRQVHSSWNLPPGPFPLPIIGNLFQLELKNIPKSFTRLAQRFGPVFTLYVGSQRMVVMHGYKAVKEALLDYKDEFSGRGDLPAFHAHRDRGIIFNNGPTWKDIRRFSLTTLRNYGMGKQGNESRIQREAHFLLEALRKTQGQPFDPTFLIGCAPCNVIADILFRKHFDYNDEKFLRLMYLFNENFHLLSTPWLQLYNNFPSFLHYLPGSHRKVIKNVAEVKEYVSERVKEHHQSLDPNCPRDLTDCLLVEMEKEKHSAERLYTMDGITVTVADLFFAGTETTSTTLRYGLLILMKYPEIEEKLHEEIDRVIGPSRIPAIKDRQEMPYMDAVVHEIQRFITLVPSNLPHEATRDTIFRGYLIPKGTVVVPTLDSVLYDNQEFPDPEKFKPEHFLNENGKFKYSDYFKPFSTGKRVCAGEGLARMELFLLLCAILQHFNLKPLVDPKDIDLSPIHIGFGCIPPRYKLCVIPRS
Structure (SMILES),"Hydroxylation activity, human P450 2E1 [6]","Hydroxylation activity, human P450 2C18 [7]","Hydroxylation activity, human P450 2C9 [8]","Hydroxylation activity, human P450 1A2 [9]","Hydroxylation activity, human P450 3A4 [10]","Hydroxylation activity, human P450 2C8 [11]","Hydroxylation activity, human P450 2D6 [12]","Hydroxylation activity, human P450 2A6 [13]","Hydroxylation activity, human P450 2B6 [14]","Hydroxylation activity, human P450 1A1 [15]","Hydroxylation activity, human P450 2C19 [16]",other results
Nc1ccc2cc3ccccc3cc2c1 [2-Aminoanthracene],,,,,,,,,,,,"Ames test activity in words, human cytochrome P450 1A2 [1]: high activity; Concentration at which mutagenicity can be detected ([1]; 20 pmol of P450 1A2 used): about 0.1 μg; Activity in Table 1 for 2-aminoanthracene (Ames test), human P450 1A2 [1, 18]: + + +; Revertant colonies detected, yeast expressing human P450 1A2 (AH22/p1A2R) [1, 19]: more than 1000 revertant colonies; Ames test revertant colonies in words, human cytochrome P450 2C8 [2]: not found; Activity in Table 1 for 2-aminoanthracene (Ames test), human P450 2C8 [2, 18]: −; Ames test revertant colonies in words, human cytochrome P450 2A6 [3]: not found; Activity in Table 1 for 2-aminoanthracene (Ames test), human P450 2A6 [3, 18]: −; Ames test revertant colonies in words, human cytochrome P450 3A4 [4]: not found; Activity in Table 1 for 2-aminoanthracene (Ames test), human P450 3A4 [4, 18]: −; Ames test activity in words, human P450 2E1 [5]: moderate activity; Activity in Table 1 for 2-aminoanthracene (Ames test), human P450 2E1 [5, 18]: + +; Revertant colonies detected, yeast expressing human P450 2E1 (AH22/p2E1R) [5, 19]: more than 1000 revertant colonies"
CCOc1ccc2ccc(=O)oc2c1 [7-Ethoxycoumarin],+ +,+,+,+ +,+,+,+ +,+ +,+ + +,+ + +,+,
CC(=O)Nc1ccccc1 [Acetanilide],+ +,+ +,+ +,+ + +,+,+ +,+ + +,+ +,+ +,+ +,+ +,
O=c1ccc2ccccc2o1 [Coumarin],−,−,−,−,−,−,−,+ + +,−,−,−,Hydroxylated metabolite / hydroxylation activity with yeast expressing other human P450 than those named [17]: no activity
CCCCNC(=O)NS(=O)(=O)c1ccc(C)cc1 [Tolbutamide],−,+,,−,,+,−,−,−,−,+ +,Hydroxylated metabolite / hydroxylation activity with yeast expressing other human P450 than those named ([17]; microsomes): not detected
